Assays:
MBP-PdeA = molecular target: T1, MBP-PdeA (Lactobacillus acidophilus, UniProt Q5FJ85); assay: PDE assay, reversed-phase HPLC; type: biochemical; settings: 10 μM enzyme, 100 μM c-di-GMP, 5 mM MgCl2, 50 mM Tris-HCl pH 9.35, 37 °C
T1 construct: gene LBA1414; pdeA (EAL domain only protein), MBP fusion in pMAL-c2, expressed in E. coli BL21, amylose column; MBP kept
T1 sequence (Q5FJ85 1-231): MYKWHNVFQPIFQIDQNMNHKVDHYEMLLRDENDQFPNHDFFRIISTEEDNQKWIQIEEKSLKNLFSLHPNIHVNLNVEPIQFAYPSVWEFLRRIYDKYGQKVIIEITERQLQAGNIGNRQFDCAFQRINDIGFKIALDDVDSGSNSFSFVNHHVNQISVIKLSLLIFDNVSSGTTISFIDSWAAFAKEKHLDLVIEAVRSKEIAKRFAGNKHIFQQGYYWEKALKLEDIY

[1] = molecular target: T2, MBP-EALpdeB (EAL domain of PdeB) (Lactobacillus acidophilus, UniProt Q5FJ84); assay: equilibrium dialysis with HPLC quantification; type: binding
T2 construct: gene LBA1415; EAL domain (residues 32-267, ELLLR motif, no N-terminal membrane targeting signal), MBP fusion in pMAL-c2, expressed in E. coli BL21, amylose column; MBP kept
T2 sequence (Q5FJ84 32-267): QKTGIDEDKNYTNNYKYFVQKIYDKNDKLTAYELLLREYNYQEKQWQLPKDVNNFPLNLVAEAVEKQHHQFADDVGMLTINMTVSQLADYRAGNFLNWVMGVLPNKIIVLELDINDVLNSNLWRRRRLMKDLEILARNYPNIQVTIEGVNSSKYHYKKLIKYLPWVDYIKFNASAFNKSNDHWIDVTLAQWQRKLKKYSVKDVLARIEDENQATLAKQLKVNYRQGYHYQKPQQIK

| Compound | PDE assay, reversed-phase HPLC (MBP-PdeA) | Kd [1] |
| --- | --- | --- |
| Nc1nc2c(ncn2[C@@H]2O[C@H](COP(=O)(O)O[C@H]3[C@@H](O)[C@H](n4cnc5c(=O)[nH]c(N)nc54)O[C@@H]3COP(=O)(O)O)[C@@H](O)[C@H]2O)c(=O)[nH]1 [pGpG] | The PdeA enzymatic reaction product corresponded to the retention time of the pGpG | – |
| Nc1nc2c(ncn2[C@@H]2O[C@@H]3COP(=O)(O)O[C@H]4[C@@H](O)[C@H](n5cnc6c(=O)[nH]c(N)nc65)O[C@@H]4COP(=O)(O)O[C@H]3[C@H]2O)c(=O)[nH]1 [c-di-GMP] | PdeA was able to hydrolyze c-di-GMP to pGpG | 4.87 ± 0.89 µM |

From paper PMC6123363, “Functional Characterization of c-di-GMP Signaling-Related Genes in the Probiotic Lactobacillus acidophilus” (Frontiers in Microbiology, 2018)
